In US8513234B2, “HIV integrase inhibitors” (Merck Sharp & Dohme Corp., priority 2008, dated 2013):
Like-named read-outs stand apart in the source and are kept apart here.

What was measured:
[1] = biological target: T1, recombinant integrase (HIV-1 integrase) (Human immunodeficiency virus type 1 group M subtype B, UniProt P04585); test: HIV-1 integrase assay: strand transfer catalyzed by recombinant integrase; type: biochemical; details: strand transfer activity
T1 construct: Assays for the strand transfer activity of integrase were conducted in accordance with WO 02/30930 for recombinant integrase
Method: HIV-1 Integrase Assay: Strand Transfer Catalyzed by Recombinant Integrase
Assays for the strand transfer activity of integrase were conducted in accordance with WO 02/30930 for recombinant integrase. […] For example, the compounds prepared in Examples 1 to 5 were tested in the integrase assay and found to have the IC50 values in Table B. (Compounds 6A and 6B were not tested in this assay.)
Further description on conducting the assay using preassembled complexes is found in Wolfe, A. L. et al., J. Virol. 1996, 70: 1424-1432, Hazuda et al., J. Virol. 1997, 71: 7005-7011; Hazuda et al., Drug Design and Discovery 1997, 15: 17-24; and Hazuda et al., Science 2000, 287: 646-650.

HIV-1 = test: Inhibition of acute HIV-1 infection of T-lymphoid cells (spread assay); type: cell-based
Method: Assay for Inhibition of HIV-1 Replication
Assays for the inhibition of acute HIV-1 infection of T-lymphoid cells were conducted in accordance with Vacca, J. P. et al, Proc. Natl. Acad. Sci. USA 1994, 91: 4096.

wild type IIIB = test: Single cycle infectivity assay in HeLa P4-2 cells, wild type virus; type: cell-based, HIV
[2] = system: virus containing G140S/Q148H mutation in the integrase gene; details: k = IC50(mutant)/IC50(wild type)
Method: (§1) An assay for measuring the inhibition of acute HIV infection with HeLa P4-2 cells in a single cycle infectivity assay was conducted using methods described in Joyce et al., J. Biol. Chem. 2002, 277: 45811, Hazuda et al., Science 2000, 287: 646, and Kimpton et al, J. Virol. 1992, 66: 2232. Proviral plasmids encoding viruses containing specific mutations in the integrase gene (N155H, Q148R, Y143R, E92Q, or G140S/Q148H) were generated by site-directed mutagenesis, and viruses were produced by transfecting 293T cells with the appropriate proviral plasmids.

[3] = system: virus containing N155H mutation in the integrase gene; details: k = IC50(mutant)/IC50(wild type)
Method: as §1

[4] = system: virus containing Q148R mutation in the integrase gene; details: k = IC50(mutant)/IC50(wild type)
Method: as §1

[5] = system: virus containing Y143R mutation in the integrase gene; details: k = IC50(mutant)/IC50(wild type)
Method: as §1

[6] = system: virus containing E92Q mutation in the integrase gene; details: k = IC50(mutant)/IC50(wild type)
Method: as §1

[7] = Human immunodeficiency virus 1, IIIB, HeLaP4-2, HeLa P4-2 cells, single cycle infectivity, wild type IIIB, read-out: wild type IIIB IC50
[8] = HeLa P4-2 cells, single cycle infectivity, wild type IIIB, read-out: wild type IIIB IC50

Row | SMILES | IC50 ([1]; read-out: IC50) [nM] | IC95 (nM) in the presence of 10% FBS (HIV-1) [nM] | IC50 (wild type IIIB; [7]) [nM] | Number of fold shift in IC50 versus wild type IIIB, G140S/Q148H [2] | Number of fold shift in IC50 versus wild type IIIB, N155H [3] | Number of fold shift in IC50 versus wild type IIIB, Q148R [4] | Number of fold shift in IC50 versus wild type IIIB, Y143R [5] | IC50 ([1]; IC50 (nM)) [nM] | IC50 (wild type IIIB; [8]) [nM] | Number of fold shift in IC50 versus wild type IIIB, E92Q [6] | IC50 (wild type IIIB; Human immunodeficiency virus 1, IIIB, HeLaP4-2, read-out: wild type IIIB IC50 (nM)) [nM]
1 | Cc1cc(CNC(=O)c2nc3n(c(=O)c2O)[C@H](C)COC[C@@H]3N(C)C(=O)C(=O)N(C)C)ccc1F [Compound 4C, N-((6R,10R)-2-{[(4-fluoro-3-methylbenzyl)amino]carbonyl}-3-hydroxy-6-methyl-4-oxo-6,7,9,10-tetrahydro-4H-pyrimido[1,2-d][1,4]oxazepin-10-yl)-N,N′,N′-trimethylethanediamide] | 48 | 10 | 26 | 11 | 3 | 3 | 1 | – | – | – | –
2 | CO[C@@]1(C)CC[C@H](N(C)C(=O)C(=O)N(C)C)c2nc(C(=O)NCc3ccc(F)c(C)c3)c(O)c(=O)n2C1 [Compound 2B, N-((7S,10S)-2-{[(4-fluoro-3-methylbenzyl)amino]carbonyl}-3-hydroxy-7-methoxy-7-methyl-4-oxo-4,6,7,8,9,10-hexahydropyrimido[1,2-a]azepin-10-yl)-N,N′,N′-trimethylethanediamide] | – | 9 | 8 | 190 | 24 | 24 | 3 | 41 | – | – | –
3 | Cc1cc(CNC(=O)c2nc3n(c(=O)c2O)[C@H](C)COC[C@H]3N(C)C(=O)C(=O)N(C)C)ccc1F [Compound 4D, N-((6R,10S)-2-{[(4-fluoro-3-methylbenzyl)amino]carbonyl}-3-hydroxy-6-methyl-4-oxo-6,7,9,10-tetrahydro-4H-pyrimido[1,2-d][1,4]oxazepin-10-yl)-N,N′,N′-trimethylethanediamide] | 36 | 6 | 20 | 72 | 8 | 9 | 2 | – | – | – | –
4 | CC1(C)OCCn2c1nc(C(=O)NCc1ccc(F)cc1)c(O)c2=O [Compound Z, N-[(4-fluorophenyl)methyl]-3-hydroxy-9,9-dimethyl-4-oxo-4,6,7,9-tetrahydro-6H-pyrimido[2,1-c][1,4]oxazine-2-carboxamide, reference compound] | – | – | – | >34 | 32 | >34 | 1 | – | 34 | 26 | –
5 | CN(C)C(=O)C(=O)N(C)C1CCCCn2c1nc(C(=O)NCc1ccc(F)cc1)c(O)c2=O (single isomer, unassigned; (-)) [Compound Y, (−)N-(2-{[(4-fluorobenzyl)amino]carbonyl}-3-hydroxy-4-oxo-4,6,7,8,9,10-hexahydropyrimido[1,2-a]azepin-10-yl)-N,N′,N′-trimethylethanediamide, reference compound] | – | – | 16 | 406 | 15 | 26 | 1 | – | – | 4 | –
6 | Cc1nnc(C(=O)NC(C)(C)c2nc(C(=O)NCc3ccc(F)cc3)c(O)c(=O)n2C)o1 [Compound X, raltegravir, reference compound] | – | – | – | 397 | 13 | 22 | 15 | – | – | 3 | 52
7 | COC1(C)CCC(N(C)C(=O)C(=O)N(C)C)c2nc(C(=O)NCc3ccc(F)c(C)c3)c(O)c(=O)n2C1 (single isomer, unassigned) [Compound 2C, N-(2-{[(4-fluoro-3-methylbenzyl)amino]carbonyl}-3-hydroxy-7-methoxy-7-methyl-4-oxo-4,6,7,8,9,10-hexahydropyrimido[1,2-a]azepin-10-yl)-N,N′,N′-trimethylethanediamide] | – | 9 | – | 68 | 19 | 22 | 3 | 73 | 8 | – | –
8 | Cc1cc(CNC(=O)c2nc3n(c(=O)c2O)CC(C)(C)CC[C@@H]3N(C)C(=O)C(=O)N(C)C)ccc1F [Compound 1B, N-((10S)-2-{[(4-fluoro-3-methylbenzyl)amino]carbonyl}-3-hydroxy-7,7-dimethyl-4-oxo-4,6,7,8,9,10-hexahydropyrimido[1,2-a]azepin-10-yl)-N,N′,N′-trimethylethanediamide] | 38 | 10 | 13 | 34 | 14 | 12 | 1 | – | – | – | –
9 | CC[C@@H]1COC[C@H](N(C)C(=O)C(=O)N(C)C)c2nc(C(=O)NCc3ccc(F)cc3)c(O)c(=O)n21 [Compound 5C, N-((6R,10R)-6-ethyl-2-{[(4-fluorobenzyl)amino]carbonyl}-3-hydroxy-4-oxo-6,7,9,10-tetrahydro-4H-pyrimido[1,2-d][1,4]oxazepin-10-yl)-N N′N′-trimethylethanediamide] | 41 | 14 | 21 | 116 | 7 | 7 | 2 | – | – | – | –
10 | Cc1cc(CNC(=O)c2nc3n(c(=O)c2O)CC(C)(C)CC[C@H]3N(C)C(=O)C(=O)N(C)C)ccc1F [Compound 1A, N-((10R)-2-{[(4-fluoro-3-methylbenzyl)amino]carbonyl}-3-hydroxy-7,7-dimethyl-4-oxo-4,6,7,8,9,10-hexahydropyrimido[1,2-a]azepin-10-yl)-N,N′,N′-trimethylethanediamide] | 42 | 12 | 41 | 9 | 1 | 2 | 1 | – | – | – | –
11 | COC1(C)CCC(N(C)C(=O)C(=O)N(C)C)c2nc(C(=O)NCc3ccc(F)c(C)c3)c(O)c(=O)n2C1 (single isomer, unassigned) [Compound 2D, N-(2-{[(4-fluoro-3-methylbenzyl)amino]carbonyl}-3-hydroxy-7-methoxy-7-methyl-4-oxo-4,6,7,8,9,10-hexahydropyrimido[1,2-a]azepin-10-yl)-N,N′,N′-trimethylethanediamide] | – | 14 | – | 4 | 2 | 1 | 2 | 46 | 23 | – | –
12 | CC[C@@H]1COC[C@@H](N(C)C(=O)C(=O)N(C)C)c2nc(C(=O)NCc3ccc(F)cc3)c(O)c(=O)n21 [Compound 5D, N-((6R,10S)-6-ethyl-2-{[(4-fluorobenzyl)amino]carbonyl}-3-hydroxy-4-oxo-6,7,9,10-tetrahydro-4H-pyrimido[1,2-d][1,4]oxazepin-10-yl)-N N′ N′-trimethylethanediamide] | 42 | 20 | 26 | 18 | 13 | 14 | 1 | – | – | – | –
